T1: human ALK5 (ALK5 T204D kinase domain) (Homo sapiens, UniProt P36897, T204D)
T1 construct: The kinase domain of human ALK5 (amino acids 200-503); made in house; host or cells: insect cells (baculovirus)
T1 sequence (P36897 200-503 T204D): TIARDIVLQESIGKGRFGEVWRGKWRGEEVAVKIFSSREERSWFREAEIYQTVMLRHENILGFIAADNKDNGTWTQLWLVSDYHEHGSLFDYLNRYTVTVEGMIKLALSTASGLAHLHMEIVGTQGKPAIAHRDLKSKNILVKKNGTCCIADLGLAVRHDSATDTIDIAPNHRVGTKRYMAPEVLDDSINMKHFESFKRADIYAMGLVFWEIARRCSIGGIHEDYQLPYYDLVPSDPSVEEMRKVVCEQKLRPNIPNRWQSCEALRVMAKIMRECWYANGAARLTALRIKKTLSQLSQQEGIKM


Assays:
[1] = test system: dimethylnitrosamine induced liver fibrosis; details: cited from earlier work
[2] = target: T1, human ALK5 (ALK5 T204D kinase domain); experiment: ALK5 kinase assay, [33P] phosphate incorporation into casein; type: biochemical; details: casein substrate, 1 μM unlabelled ATP
Method: The kinase activity of ALK5 is assessed by measuring radiolabelled phosphate [33P] incorporation in to the generic substrate, casein. The kinase domain of human ALK5 (amino acids 200-503) is fused to an N-terminal histidine tag. The kinase activity of ALK5 is rendered constitutive via point mutation at amino acid 204 (threonine to aspartate modification, ALK5 T204D) and the kinase construct is engineered to be expressed from a baculovirus expression construct in insect cells. The purified, recombinantly-expressed histidine-tagged ALK5 T204D protein is dissolved at 5.4 mg/ml in 50 mM Tris-HCl pH 8.0, 150 mM NaCl, 5 mM DTT. ALK5 T204D is dissolved to 2.5 μg/ml in assay buffer (Assay buffer: 20 mM Tris-HCl pH 7.4, 10 mM MgCl2, 2 mM MnCl2) on the day of use.
Test compounds and reference compounds are dissolved in assay buffer without DTT containing 5% (v/v) DMSO. Stock solutions of test and reference compounds are diluted in assay buffer with DTT (1.25 mM) containing 4.5% (v/v) DMSO. 10 μl of test or reference compound are added to the appropriate wells of 96 well U-bottomed plate. Total enzyme activity is determined by measuring ALK5 T204D activity in the absence of ALK5 kinase inhibitor reference compounds. Non-specific binding (NSB) is determined by measuring the activity of ALK5 T204D in the presence of ALK5 kinase inhibitor reference compounds. 10 μl of dephosphorylated casein stock solution (dephosphorylated casein is dissolved in ddH2O at 20 mg/ml) is added per well (200 μg/well final assay concentration). 20 μl of ALK5 T204D (2.5 μg/ml solution) is added per well (50 ng/well final assay concentration). The plates are left to incubate at room temperature for 10 minutes.
10 μl of ATP mix is added to the well to initiate the reaction (0.66 nM [^33P]ATP/1 μM unlabelled ATP/well final assay concentration). The ATP mix is prepared as follows, unlabelled ATP (3 mM) is dissolved in ddH2O and pH adjusted to 7.4. The stock concentration of [^33P]ATP is 10 μCi/μl. The appropriate volume of [^33P]ATP is added to unlabelled ATP solution such that the final assay concentration per well is 0.1 μCi. Following addition of the ATP mix, the plates are incubated at room temperature for 50 minutes. The kinase reaction is terminated by the addition of 50 μL Stop Buffer (20 mM Tris-HCl pH 7.4, 10 mM EDTA).
75 μl/well from the reaction plate is transferred to a Multiscreen-IP plate (MultiScreen-IP plates are prepared by added 50 μL of 70% (v/v) ethanol per well and incubated for 5 minutes at room temperature. The ethanol is removed by aspiration via a MultiScreen HTS Vacuum Manifold unit (Millipore, Cat no: MSVMHT500). The plates are washed twice by adding 200 μl/well ddH2O). The MultiScreen-IP plate is incubated at room temperature for 30 minutes to allowing binding of casein to the plate. The MultiScreen-IP plates are washed three times by adding 200 μl/well 100 mM phosphoric acid solution and the gasket is carefully removed from the back of the MultiScreen-IP plate and the plate dried in the oven for 30 minutes. The MultiScreen-IP plate is backsealed, 50 μL of Microscint™20 is added, then the plates are topsealed and radiolabelled casein detected and quantified on a TopCount™ plate-reader using the ^33P scintillation protocol.

bleomycin-treated rats = details: cited from earlier work
[3] = given therapeutically to rat, 3 weeks treatment

Molecule	IC50 [2]	further results
c1ccc(-c2cc(-c3cn[nH]c3-c3ccccn3)ccn2)cc1 [GW6604]	–	side effects ([1]; during the 3 weeks treatment): no obvious side effects; inhibition of extracellular matrix deposition [1, 3]: 60%; prevented death rate [1, 3]: 40%
CNc1cc(-c2cncc(-c3cccc(CN4CCN(C)CC4)c3)c2)cc(-c2ccccn2)n1 [Example 2.23, Methyl-{5″-[3-(4-methyl-piperazin-1-ylmethyl)-phenyl]-[2,2′;4′,3″]terpyridin-6′-yl}-amine]	16 nM	–
CNc1cc(-c2cncc(-c3ccc(C(=O)N4CCN(C)CC4)cc3)c2)cc(-c2ccccn2)n1 [Example 2.106, [4-(6′-Methyl-d3-amino-[2,2′;4′,3″]terpyridin-5″-yl)-phenyl]-(4-methyl-d3-piperazin-1-yl)-methanone]	9 nM	–
C[C@@H]1CN(Cc2ccc(-c3cncc(-c4cc(-c5ccccn5)nc(C(C)(C)O)c4)c3)cc2)CCN1 [Example 2.91, 2-{5″-[4-((R)-3-Methyl-piperazin-1-ylmethyl)-phenyl]-[2,2′;4′,3″]terpyridin-6′-yl}-propan-2-ol]	32 nM	–
c1ccc(-c2cc(-c3cccnc3)cc(NCCc3cccc4[nH]ccc34)n2)nc1 [Example 1.6, [2-(1H-Indol-4-yl)-ethyl]-[2,2′;4′,3″]terpyridin-6′-yl-amine]	29 nM	–
CC(C)(O)c1cc(-c2cncc(-c3ccc(CN4CCN(C(C)(C)C)CC4)cc3)c2)cc(-c2ccccn2)n1 [Example 2.82, 2-{5″-[4-(4-tert-Butyl-piperazin-1-ylmethyl)-phenyl]-[2,2′;4′,3″]terpyridin-6′-yl}-propan-2-ol]	36 nM	–
Oc1cccc(CNc2cc(-c3cncc(Br)c3)cc(-c3ccccn3)n2)c1 [Example 1.23, 3-[(5″-Bromo-[2,2′;4′,3″]terpyridin-6′-ylamino)-methyl]-phenol]	214 nM	–
CC(C)Nc1cc(-c2cncc(-c3ccc(CN4CCN(C(C)(C)C)CC4)cc3)c2)cc(-c2ccccn2)n1 [Example 2.134, {5″-[4-(4-tert-Butyl-piperazin-1-ylmethyl)-phenyl]-[2,2′;4′,3″]terpyridin-6′-yl}-isopropyl-amine]	22 nM	–
CC(C)(O)c1cc(-c2cncc(-c3cnn(C4CCOCC4)c3)c2)cc(-c2ccccn2)n1 [Example 2.84, 2-{5″-[1-(Tetrahydro-pyran-4-yl)-1H-pyrazol-4-yl]-[2,2′;4′,3″]terpyridin-6′-yl}-propan-2-ol]	20 nM	–
CN(C)[C@@H]1CCN(Cc2ccc(-c3cncc(-c4cc(NC5CC5)nc(-c5ccccn5)c4)c3)cc2)C1 [Example 2.62, Cyclopropyl-{5″-[4-((R)-3-dimethylamino-pyrrolidin-1-ylmethyl)-phenyl]-[2,2′;4′,3″]terpyridin-6′-yl}-amine]	235 nM	–
CC(C)N1CCN(Cc2ccc(-c3cncc(-c4cc(NC5CC5)nc(-c5ccccn5)c4)c3)cc2)CC1 [Example 2.31, Cyclopropyl-{5″-[4-(4-isopropyl-piperazin-1-ylmethyl)-phenyl]-[2,2′;4′,3″]terpyridin-6′-yl}-amine]	4 nM	–
[2H]C([2H])([2H])Nc1cc(-c2cncc(-c3ccc(CN4CCN(C(C)(C)C)CC4)cc3)c2)cc(-c2ccccn2)n1 [Example 2.107, {5″-[4-(4-tert-Butyl-piperazin-1-ylmethyl)-phenyl]-[2,2′;4′,3″]terpyridin-6′-yl}-methyl-d3-amine]	13 nM	–
Follistatin: an antagonist of activin signalling (protein, UniProt P19883 30-344, looked up) Follistatin: GNCWLRQAKNGRCQVLYKTELSKEECCSTGRLSTSWTEEDVNDNTLFKWMIFNGGAPNCIPCKETCENVDCGPGKKCRMNKKNKPRCVCAPDCSNITWKGPVCGLDGKTYRNECALLKARCKEQPELEVQYQGRCKKTCRDVFCPGSSTCVVDQTNNAYCVTCNRICPEPASSEQYLCGNDGVTYSSACHLRKATCLLGRSIGLAYEGKCIKAKSCEDIQCTGGKKCLWDFKVGRGRCSLCDELCPDSKSDEPVCASDNATYASECAMKEAACSSGVLLEVKHSGSCNSISEDTEEEEEDEDQDYSFPISSILEW	–	lung fibrosis (bleomycin-treated rats): attenuated; number of macrophages and neutrophils in bronchoalveolar lavage (bleomycin-treated rats): significantly reduced
